Experimental data: patent US9902986B2, “Enterobactin conjugates and uses thereof” (Massachusetts Institute of Technology, priority 2013, dated 2018)
Entries after “also recorded” stand apart in the source; their conditions may differ.

Assays:
[1] = test system: human colon epithelial T84 cells; experiment: Cytotoxicity study using MTT; settings: 24 h, concentrations up to 10 μM
Experimental: Colon epithelial T84 cell line (purchase from ATCC) were grown in DMEM/F12 medium containing penicillin (100 I.U./mL) and streptomycin (100 μg/mL). The cells were passed and plated in 96-well flat-bottom plates ˜16 h before treatment. Each well contained 90 µL of the cell culture at a density of 10^5 cells/mL. Stock solutions of the tested conjugates (e.g., Ent-Amp) were prepared in sterile filtered 10% DMSO/water, and 10 μL of the each solution was added to each well. The plate was incubated at 37° C. and under 5% CO2 for 24 h and 20 μL of MTT (5 mg/mL in sterile PBS) was added to each well. The plate was incubated at 37° C. for another 4 h, and the supernatant was removed from each well. DMSO (100 μL) was added to the wells to afford a purple solution, and the absorbance at 550 nm was recorded by using a plate reader. Blank readings were generated by wells that only contain the growth medium but no cells. The assay was repeated in three independent trials, and the resulting mean and standard errors are reported. […] Ent-Amp, Ent, and Amp were incubated with human colon epithelial T84 cells for 24 h.
In another exemplary experiment, the human colon epithelial T84 cell line was purchased from ATCC and cultured in 1:1 DMEM/F12 medium with 10% fetal bovine serum, 1% penicillin, and streptomycin (v/v, ATCC). The cells were grown to approximately 95% confluency and treated with 3 mL of trypsin-EDTA (Corning). A 12-mL portion of fresh medium was added to the detached cells, and the T84 cell suspension was centrifuged (600 rpm×5 min, 37° C.). The supernatant was discarded, and the cell pellet was resuspended in 6 mL of the fresh culture media. The concentration of cells was quantified by using a manual hemocytometer (VWR International) and adjusted to 1×10^5 cells/mL. A 90-μL aliquot of T84 cells were then added to 96-well plates and incubated at 37° C. and 5% CO2 for 24 h. […] DMSO (100 μL) was added to each well and the absorbance at 550 nm was recorded by using a plate reader. Blank readings were recorded on wells that only contained the medium. […]

[2] = test system: various E. coli strains; experiment: Antibacterial activity against a panel of E. coli strains; type: cell-based, Escherichia coli; settings: 6 strains of E. coli (K-12, B, H9049, 25922, UTI89, CFT073)
Experimental: (§1) Overnight cultures of the bacterial strains were prepared by inoculating 5 mL of LB with the bacterial freezer stocks and the cultures were incubated at 37° C. in a tabletop incubator shaker set at 150 rpm. The overnight culture grew to saturation and was diluted 1:100 into 5 mL of fresh LB medium containing DP (200 μM) and incubated at 37° C. with shaking at 150 rpm until OD600 reached 0.6. The cultures were subsequently diluted to an OD600 value of 0.001 in 50% MHB medium (11.5 g/L) with or without DP (200 μM). No antibiotic marker was included in these cultures. A 90-μL aliquot of the diluted culture was combined with a 10-μL aliquot of a 10× solution of the tested compounds in a 96-well plate, which was wrapped in […] and incubated at 30° C. with shaking at 150 rpm for 19 h. Bacterial growth was determined by measuring OD600 using a BIOTEK SYNERGY HT plate reader. Each well condition was prepared in duplicate, and at least three independent replicates were conducted on different days. The resulting mean OD600 are reported and the error bars are the standard deviation.
Ampicillin and amoxicillin are β-lactam antibiotics that have periplasmic targets in Gram-negative bacteria and inhibit cell wall biosynthesis. The antibacterial activity of Ent-ampicillin and Ent-amoxicillin conjugates 44 and 45 was evaluated in vitro against a panel of Gram-negative and positive-bacteria.
Select Ent-β-lactam conjugates (Ent-Amp and Ent-Amx) and their glucosylated derivatives (MGE-Amp, MGE-Amx, DGE-Amp, and DGE-Amx) were tested against 6 strains of E. coli. Four of them are non-pathogenic strains, namely K-12, B, H9049, and 25922, and the other two are uropathogenic clinical isolates, namely UTI89 and CFT073.

[3] = test system: E. coli K-12; experiment: Antimicrobial activity assay, E. coli K-12; type: cell-based, Escherichia coli; settings: inhibition attributed to iron deprivation
Experimental: as §1
In an exemplary experiment, antibacterial activities of the conjugates were tested against E. coli K-12 in 50% MHB at 30° C., t=19 h. 2,2′-dipyridyl (DP, 200 μM) was added to provide conditions of iron limitation.

[4] = test system: E. coli CFT073; experiment: Antimicrobial activity assay, E. coli CFT073; type: cell-based, Escherichia coli; settings: Fe(III)-loaded versus apo conjugates, 50% MHB, 200 μM DP, 30° C., t=19 h
Experimental: as §1
In another exemplary experiment, antibacterial activities of the conjugates were tested against E. coli CFT073 in 50% MHB at 30° C., t=19 h. DP (200 μM) was added to provide conditions of iron limitation.
In another exemplary experiment, antibacterial activities of Fe(III)-loaded or apo Ent-β-lactam conjugates (Ent-Amp and Ent-Amx) and their glucosylated derivatives (MGE-Amp, MGE-Amx, DGE-Amp, and DGE-Amx) against the uropathogenic strain E. coli CFT073 were tested in 50% MHB, 30° C., t=19 h. 2,2′-dipyridyl (DP, 200 μM) was added to provide conditions of iron limitation.

[5] = test system: Salmonella enterica serovar Typhimurium (STM) IR715; experiment: Antibacterial activity assay, Salmonella Typhimurium; type: cell-based; settings: 50% MHB, 100 μM 2,2′-dipyridyl, 30° C., t=19 h
Experimental: FIGS. 12A and 12B show exemplary antibacterial activities of Ent-Amp, Ent-Amx, MGE-Amp, MGE-Amx, DGE-Amp, and DGE-Amx against Salmonella enterica serovar Typhimurium (STM) IR715 (50% MHB with 100 μM 2,2′-dipyridyl to provide conditions of iron limitation, 30° C., t=19 h). (FIG. 12A) Antibacterial activity of Amp and the Amp-containing conjugates (Ent-Amp, MGE-Amp, and DGE-Amp). […] (FIG. 12B) Antibacterial activity of Amx and the Amx-containing conjugates (Ent-Amx, MGE-Amx, and DGE-Amx).

[6] = test system: E. coli CFT073; experiment: Antimicrobial activity assay in the presence of lipocalin 2; type: cell-based, Escherichia coli; settings: conjugate 100 nM, lcn2 1 μM, M9 minimal media, 37° C., 24 h
Experimental: The bacterial cultures were grown in modified M9 minimal medium (Blango, M. G.; Ott, E. M.; Erman, A.; Veranic, P.; Mulvey, M. A. Forced Resurgence and Targeting of Intracellular Uropathogenic Escherichia coli Reservoirs. PLoS One 2014, 9, e93327-e93335) (Na2HPO4 6.8 g/L, KH2PO4 3 g/L, NaCl 0.5 g/L, NH4Cl 1 g/L, 0.4% glucose, 2 mM MgSO4, 0.1 mM CaCl2, 0.2% casein amino acids, and 16.5 μg/mL of thiamine) overnight. […] The cultures were serially diluted to an OD600 value of 0.00001 in fresh modified M9 minimal medium. Lipocalin 2 (Lcn2) was diluted into PBS buffer to a concentration of 20 μM upon arrival and frozen at −20° C. until use. Bovine serum albumin (BSA, Sigma-Aldrich) was prepared in PBS buffer to achieve a concentration of 20 μM. […] The bacterial growth was determined by measuring OD600 using the plate reader. […] The resulting mean OD600 was reported, and the error bars were the standard deviation. […] In contrast, Lcn2 had no effect of the antibacterial activity of MGE-Amp, MGE-Amx, DGE-Amp, or DGE-Amx.

[7] = test system: E. coli UTI89; experiment: Competition assay with native siderophores, E. coli UTI89; type: cell-based, Escherichia coli; settings: conjugate 100 nM, varied Ent, MGE or DGE, 50% MHB, 200 μM DP, 30° C., t=19 h
Experimental: Ent was synthesized following a literature procedure^55 and stored as DMSO stock solution at −20° C. MGE and DGE were prepared from Ent using MceC and IroB as described for MGE-PEG3-N3 and DGE-PEG3-N3.
(§2) In an exemplary experiment, select conjugates (Ent-Amp, MGE-Amp, and DGE-Amp) with select native siderophores (Ent, MGE, and DGE) were tested against the uropathogenic strain E. coli UTI89 in 50% MHB, t=19 h, 30° C. […] The concentration of the conjugates was fixed at 100 nM, and the concentration of the native siderophores was varied. […] These observations indicate that Ent, MGE, Ent-Amp, and MGE-Amp may enter via both FepA and IroN with different efficiency, but DGE and DGE-Amp may only enter via IroN.
as §2, with “In another” for “In an”, “100 nM” for “100 nM,”

[8] = test system: E. coli CFT073; experiment: Competition assay with native siderophores, E. coli CFT073; type: cell-based, Escherichia coli; settings: conjugate 100 nM, varied Ent, MGE or DGE, 50% MHB, 200 μM DP, 30° C., t=19 h
Experimental: These assays were performed following the general procedure described herein except that varying concentrations of Ent, MGE, or DGE, each of which was unmodified, were mixed with Ent-Amp, Ent-Amx, MGE-Amp, MGE-Amx, DGE-Amp, or DGE-Amx. Ent was synthesized following a literature procedure^55 and stored as DMSO stock solution at −20° C. MGE and DGE were prepared from Ent using MceC and IroB as described for MGE-PEG3-N3 and DGE-PEG3-N3.
(§3) In another exemplary experiment, select conjugates (Ent-Amp, MGE-Amp, and DGE-Amp) with select native siderophores (Ent, MGE, and DGE) were tested against the uropathogenic strain E. coli CFT073 in 50% MHB, t=19 h, 30° C. 2,2′-dipyridyl (DP, 200 μM) was added to provide conditions of iron limitation. The concentration of the conjugates was fixed at 100 nM and the concentration of the native siderophores was varied.
as §3, with “(Ent-Amx, MGE-Amx,” for “(Ent-Amp, MGE-Amp,”, “DGE-Amx)” for “DGE-Amp)”, “DP (200” for “2,2′-dipyridyl (DP, 200”

[9] = test system: uropathogenic E. coli and non-pathogenic E. coli; experiment: Mixed culture assays (summary), uropathogenic and non-pathogenic E. coli; type: cell-based, Escherichia coli; settings: uropathogenic with non-pathogenic E. coli
Description: No antibiotic marker was included in these cultures.

Compound | effect on viability of T84 cells (MTT) [1] | antibacterial activity against uropathogenic compared to non-pathogenic E. coli [2] | concentrations at which E. coli K-12 was inhibited [3] | effect of preloading Fe(III) on antibacterial activity [4] | antibacterial activity relative to the unmodified antibiotic [5] | effect of lipocalin-2 (lcn2) on antibacterial activity [6] | attenuation of antibacterial activity by native siderophores [7] | attenuation of antibacterial activity by native siderophores [8] | strain-specific growth inhibition in the mixed culture assays [9]
CC1(C)S[C@@H]2[C@H](NC(=O)[C@H](N)c3ccccc3)C(=O)N2[C@H]1C(=O)O [Amp, Ampicillin] | did not affect the viability of human cells significantly |  |  |  |  |  |  |  | 
CC1(C)SC2C(NC(=O)C(NC(=O)CCCc3cn(CCOCCOCCOCCNC(=O)c4cc(O)c(O)c(C(=O)NC5COC(=O)C(NC(=O)c6cc(C7OC(CO)C(O)C(O)C7O)cc(O)c6O)COC(=O)C(NC(=O)c6cc(C7OC(CO)C(O)C(O)C7O)cc(O)c6O)COC5=O)c4)nn3)c3ccc(O)cc3)C(=O)N2C1C(=O)O (centres unmarked) [DGE-Amx] |  | greater antibacterial activity against the uropathogenic E. coli compared to non-pathogenic E. coli | micromolar concentrations | no effect | enhanced antibacterial activity relative to unmodified Amx | unaffected; also recorded: no effect; also recorded: not attenuated | attenuated by Ent, MGE, or DGE | attenuated by Ent, MGE, or DGE | specifically inhibited the growth of the uropathogenic E. coli
CC1(C)SC2C(NC(=O)C(NC(=O)CCCc3cn(CCOCCOCCOCCNC(=O)c4cc(O)c(O)c(C(=O)NC5COC(=O)C(NC(=O)c6cc(C7OC(CO)C(O)C(O)C7O)cc(O)c6O)COC(=O)C(NC(=O)c6cccc(O)c6O)COC5=O)c4)nn3)c3ccc(O)cc3)C(=O)N2C1C(=O)O (centres unmarked) [MGE-Amx] |  | greater antibacterial activity against the uropathogenic E. coli compared to non-pathogenic E. coli | micromolar concentrations | no effect | enhanced antibacterial activity relative to unmodified Amx | unaffected; also recorded: no effect; also recorded: not attenuated | attenuated by Ent, MGE, or DGE | attenuated by Ent, MGE, or DGE | specifically inhibited the growth of the uropathogenic E. coli
